Values joined by “and” are separate entries in the source; they are usually repeats but may differ in a detail not shown here. Identical values can stand only once.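 Step 1: Grow cells in 96-well plates. Step 2: Expose to compound for 48 hours at 5 concentrations. Step 3: Interpolate endpoints linearly; if unreached, use highest concentration. GI50 is the concentration that inhibits growth by half. TGI is the concentration that stops growth completely.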
What was measured:
Test in all cases: NCI anticancer screen, dose series, 48 h
CAKI-1 renal = test system: CAKI-1 renal
MCF7 breast = test system: MCF7 breast
K-562 leukemia = test system: K-562 leukemia
SNB-75 CNS = test system: SNB-75 CNS
A498 renal = test system: A498 renal
RXF 393 renal = test system: RXF 393 renal
786-0 renal = test system: 786-0 renal
SK-MEL-28 melanoma = test system: SK-MEL-28 melanoma
OVCAR-3 ovarian = test system: OVCAR-3 ovarian
NCI-H226 lung = test system: NCI-H226 lung

| SMILES | TGI (CAKI-1 renal) [µM] | TGI (MCF7 breast) [µM] | TGI (K-562 leukemia) [µM] | TGI (SNB-75 CNS) [µM] | TGI (A498 renal) [µM] | TGI (RXF 393 renal) [µM] | TGI (786-0 renal) [µM] | TGI (SK-MEL-28 melanoma) [µM] | TGI (OVCAR-3 ovarian) [µM] | TGI (NCI-H226 lung) [µM] | GI50 (CAKI-1 renal) [µM] | GI50 (NCI-H226 lung) [µM] | GI50 (MCF7 breast) | GI50 (SNB-75 CNS) [µM] | GI50 (OVCAR-3 ovarian) [µM] |
| --- | --- | --- | --- | --- | --- | --- | --- | --- | --- | --- | --- | --- | --- | --- | --- |
| COc1nc(C#CC2CCCCC2)nc(OC)n1 | 12.5 | 14.9 | 28.4 | 27.6 | 37.2 | 19.1 | 7.77 | 32.8 | 8.97 | – | – | – | – | – | – |
| CC(CNC(N)=O)NC(N)=O (centres undefined) | > 100 | > 100 | > 100 | > 100 | > 100 | > 100 | > 100 | > 100 | > 100 | > 100 | – | – | – | – | – |
| Cc1ncc(COP(=O)(O)O)c(/C=C2\SC(=S)NC2=O)c1O | > 100 | > 100 | > 100 | > 100 | > 100 | > 100 | > 100 | > 100 | > 100 | > 100 | – | – | – | – | – |
| C=C1C(C)C2C(Cc3ccccc3)NC(=O)C23OC(=O)/C=C\CC(=O)CCC(C)C/C=C/C3C1O (centres undefined) | 2.24 | 5.1 | 5.79 | 2.64 | 5.32 | 1.42 | – | 3.92 | 7.9 | 10.3 | 0.474 | 0.635 | 0.695 µM and 1.39 µM | 0.594 | 0.384 |
| COC(NC(=O)Nc1ccccc1C)(C(F)(F)F)C(F)(F)F | – | > 100 | > 100 | > 100 | > 100 | > 100 | > 100 | > 100 | > 100 | > 100 | – | – | – | – | – |
| C#CCOC(=O)c1ccc(OC(C)=O)cc1 | > 100 | > 100 | > 100 | > 100 | > 100 | > 100 | > 100 | – | > 100 | > 100 | – | – | – | – | – |
| CCCCCCCCC#CCCCCCCCCCC[C@@H]1C(=O)O[C@H](C)[C@@H]1O (tested in a mixture with another compound) | 29.1 | 50.5 | 21.4 | 52.4 | > 100 | 28.4 | 31.4 | > 100 | 38.6 | > 100 | – | – | – | – | – |
| CC1=CCC[C@H]2[C@](C)(CC3=CC(=O)C(SCC(C)C)=CC3=O)[C@@H](C)CC[C@]12C | 16.7 | 37.7 | 30.8 | 23.8 | 33.2 | 26.1 | 27.2 | 32.5 | 42.1 | 28.9 | – | – | – | – | – |
| C[C@H](C1CC2(C)OC2(C)C(=O)O1)[C@H]1CC[C@H]2[C@@H]3[C@@H]4O[C@@H]4[C@@]4(O)CC=CC(=O)[C@]4(C)[C@H]3CC[C@]12C (some centres undefined) | > 50 | > 50 | > 50 | 19.8 | > 50 | 23.9 | > 50 | > 50 | > 50 | > 50 | – | – | – | – | – |
| O=C(O)c1cccc(NC(C(=O)c2ccccc2)c2ccccc2)c1 (centres undefined) | > 100 | > 100 | > 100 | – | > 100 | > 100 | > 100 | > 100 | > 100 | – | – | – | – | – | – |
| OC(NN=C1CCCC1)(C(F)(F)Cl)C(F)(F)Cl | > 10 | > 10 | > 10 | > 10 | > 10 | > 10 | > 10 | > 10 | > 10 | > 10 | – | – | – | – | – |

— PubChem BioAssay (NCI)
